ChEMBL document CHEMBL5608237, “Merging Natural Product Structures with Pharmaceutical Leads: Unnatural Enantiomers of Estranes as Glucocorticoid Receptor Modulators That Suppress TNF-α and IL-6 Release” (J Med Chem, 2024)

Key:
Androgen receptor = target: T1, Androgen receptor (Homo sapiens, UniProt P10275); test: Antagonist activity at human androgen receptor transfected in African green monkey CV-1 cells cotransfected with genetic response element-luciferase reporter gene assessed as inhibition of 5alpha-dihydro-11-keto testosterone induced response incubated for 22 hrs by luciferase detection reagent based assay; type: cell-based
T1 sequence (P10275 whole entry): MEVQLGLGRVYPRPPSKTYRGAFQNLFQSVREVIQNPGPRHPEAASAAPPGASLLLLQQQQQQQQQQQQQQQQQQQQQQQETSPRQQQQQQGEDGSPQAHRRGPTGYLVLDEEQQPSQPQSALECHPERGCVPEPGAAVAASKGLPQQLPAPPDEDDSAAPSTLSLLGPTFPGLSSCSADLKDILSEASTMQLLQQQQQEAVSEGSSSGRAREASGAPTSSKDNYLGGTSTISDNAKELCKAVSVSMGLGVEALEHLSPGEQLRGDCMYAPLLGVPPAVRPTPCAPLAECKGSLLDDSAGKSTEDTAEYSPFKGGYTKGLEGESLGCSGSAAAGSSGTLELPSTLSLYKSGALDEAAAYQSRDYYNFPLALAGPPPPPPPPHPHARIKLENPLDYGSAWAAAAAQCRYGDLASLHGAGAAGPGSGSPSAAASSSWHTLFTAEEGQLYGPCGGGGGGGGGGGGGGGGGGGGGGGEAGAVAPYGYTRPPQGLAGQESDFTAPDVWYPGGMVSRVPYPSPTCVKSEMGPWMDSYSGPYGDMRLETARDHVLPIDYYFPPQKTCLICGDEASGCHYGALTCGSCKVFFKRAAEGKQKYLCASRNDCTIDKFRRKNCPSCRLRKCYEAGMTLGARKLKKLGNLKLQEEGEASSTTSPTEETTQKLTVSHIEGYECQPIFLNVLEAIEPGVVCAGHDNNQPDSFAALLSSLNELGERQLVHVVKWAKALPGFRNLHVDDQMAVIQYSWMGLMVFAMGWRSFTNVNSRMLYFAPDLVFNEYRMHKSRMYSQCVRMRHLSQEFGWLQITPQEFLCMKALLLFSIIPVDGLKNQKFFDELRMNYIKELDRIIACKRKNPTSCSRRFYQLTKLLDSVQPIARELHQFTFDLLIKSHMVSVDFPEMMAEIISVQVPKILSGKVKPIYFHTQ

[1] = Inhibition of TNF alpha production in recombinant human IL-1 beta induced A549 cells assessed as maximum inhibition preincubated with compound for 1 hr followed by IL-1 beta addition and measured after 20 hrs by MSD assay relative to control; type: functional; conditions: time 21 hrs
[2] = Inhibition of IL-6 production in recombinant human IL-1 beta induced A549 cells assessed as maximum inhibition preincubated with compound for 1 hr followed by IL-1 beta addition and measured after 20 hrs by MSD assay relative to control; type: functional; conditions: time 21 hrs

Structure (SMILES)	IC50 (Androgen receptor)	inhibition (INH) [2]	other results
Cc1ncccc1Nc1ccc2c(c1)CCC1=C3C[C@@H](O)C[C@]3(C)CC[C@]12Cc1ccccc1	174 nM	–	–
C[C@@H]1C[C@H]2[C@@H]3CCC4=CC(=O)C=C[C@]4(C)[C@@]3(F)[C@@H](O)C[C@]2(C)[C@@]1(O)C(=O)CO [DEXAMETHASONE]	–	–	Imax [1]: 100%; Imax [2]: 98%
Cc1ncccc1NC(=O)c1ccc2c(c1)C(=O)C[C@@H]1C[C@@](O)(c3ccccc3)[C@H](O)C[C@@]21Cc1ccccc1	–	60%	inhibition (INH) [1]: 60%
Cc1ncccc1NC(=O)c1ccc2c(c1)CC[C@@H]1C[C@@](O)(C(F)(F)F)CC[C@@]21Cc1ccccc1 [DAGROCORAT]	–	60%	inhibition (INH) [1]: 60%
CC#C[C@]1(O)CC[C@H]2[C@@H]3CCC4=CC(=O)CCC4=C3[C@@H](c3ccc(N(C)C)cc3)C[C@@]21C [MIFEPRISTONE]	–	<20%	–

More lines, main results first:

IC50 (Androgen receptor)	Structure (SMILES)	inhibition (INH) [2]	other results
401 nM	Cc1ncccc1Nc1ccc2c(c1)CCC1=C3C[C@@H](O)C[C@]3(C)CC[C@]12C	–	–
> 10000 nM	Cc1ncncc1Nc1ccc2c(c1)CCC1=C3C[C@H](O)C[C@]3(C)CC[C@]12Cc1ccccc1	–	–
> 10000 nM	Cc1ncncc1Nc1ccc2c(c1)CCC1=C3C[C@@H](O)C[C@]3(C)CC[C@]12Cc1ccccc1	–	–
